Experimental data: patent publication US20240156790A1, “COMPOUNDS, COMPOSITIONS, AND METHODS FOR MODULATING FERROPTOSIS AND TREATING EXCITOTOXIC DISORDERS” (THE TRUSTEES OF COLUMBIA UNIVERSITY IN THE CITY OF NEW YORK, priority 2018, published 2024)
Entries after “also recorded” stand apart in the source; their conditions may differ. Read-outs that look alike come from different tables or passages of the source.

How the values were obtained:
HT-1080 cells = assay: Rescue activity of Fer-1 analogs: inhibition of erastin-, IKE- or RSL3-induced death (Alamar Blue viability); type: cell-based
[1] = Microsomal Stability Assay (Examples 6 and 8); type: in vitro ADME, mouse; conditions: for half-life at 20 µM: CD-1, mouse, liver microsomes; for microsomal stability / half-life, in words: assessed over two hours
Procedure: (§1) To a 96-well polypropylene plate was added phosphate buffer (182.2 μL, pH 7.4, 100 mM) followed by addition of NADPH-regenerating system solution A (10 μL), and NADPH regenerating system solution B (2 μL) (Corning Gentest 3P NADPH regenerating system solution A (#451220) and B (#451200)). A stock solution of analog (0.8 μL. 5 mM) or fer-1 (positive control) was added and the mixture was warmed to 37° C. for 5 min. Mouse microsomes (CD-1, 20 mg/mL, Life Technologies) (5 μL, thawed in 37° C. water bath before use) were added. The resulting reaction mixture was kept at 37° C. with gentle agitation for the duration of the experiment. At selected time points (0, 1, 5, 10, 20, 30, 60 and 120 min) aliquots (15 μL) were withdrawn from the plate and quenched upon addition to cold methanol (60 μL), containing an internal standard (5 μM) in a separate 96-well polypropylene plate. At the completion of the final time-point, the samples were centrifuged at 4,000 rpm for 5 min at 4° C. The supernatant (40 μL) was withdrawn and transferred to a sample vial with insert. The samples were analyzed by LC-MS. LC-MS analysis was performed on a platform comprising a Thermo Scientific Dionex Ultimate 3000 and a Bruker amaZon SL equipped with an electrospray ionization source controlled by Bruker Hystar 3.2. Chromatographic separation was performed by injecting 5 μL of the sample onto an Agilent Eclipse Plus C18 column (2.1×50 mm, 3.5 μm) maintained at 20° C. The flow rate was maintained at 400 μL/min. The initial flow conditions were 80% solvent A (water containing 0.1% acetic acid) and 20% solvent B (methanol containing 0.1% acetic acid). Solvent B was raised to 80% over 0.50 min by 1.50 min. Solvent B was raised to 100% by 5.00 min and held there for 3.25 min. […] All analogs were detected in positive mode as [M+H]*. The percent of compound remaining at each time-point was calculated as the ratio of the integrated compound peak over the internal standard peak and standardized to the t=0 time-point. Values were plotted in GraphPad Prism 9 and fit with a one phase decay.
as §1, with “and NADPH-regenerating” for “and NADPH regenerating”, “rpm (1872 g)” for “rpm”, “[M+H]*. […]” for “[M+H]*. The percent of compound remaining at each time-point was calculated as the ratio of the integrated compound peak over the internal standard peak and standardized to the t=0 time-point. Values were plotted in GraphPad Prism 9 and fit with a one phase decay.”

[2] = Solubility in the in vivo injection vehicle; type: physicochemical; conditions: solution prepared for in vivo injection, no precipitation observed
Procedure: To achieve the 20 mg/kg dose for each compound, mice were injected with a 2 mg/mL solution in the vehicle described above.

[3] = pH 7.4, text, read-out: half-life in mouse liver microsomes
[4] = pH 7.4, independent test I, read-out: t1/2 I
[5] = pH 7.4, independent test II, read-out: t1/2 II
[6] = pH 7.4, independent test III, read-out: t1/2 III

Structure (SMILES) | EC50 (HT-1080 cells; Homo sapiens, ^a 50% viability, HT-1080 cells treated with 10 μM erastin) [nM] | half-life at 20 µM [1, 3] [h] | increase in potency compared to fer-1 (HT-1080 cells; suppressing erastin-induced ferroptosis) [fold] | microsomal stability / half-life, in words [1] | Concentration (mM) [2] [mM] | Concentration (mg/mL) [2] [mg/mL] | half-life at 20 µM [1, 4] [h] | half-life at 20 µM [1, 5] [h] | half-life at 20 µM [1, 6] [h]
CCOC(=O)c1ccc(NC2CCCCC2)c(N)c1 [Fer-1, Ferrostatin-1, reference compound] | 50 | 0.04 | – | – | – | – | – | – | –
Cc1noc(-c2ccc(NC3CCCCC3)c(NC3CCCCC3)c2)n1 [PHB4082, N1,N2-dicyclohexyl-4-(3-methyl-1,2,4-oxadiazol-5-yl)benzene-1,2-diamine] | – | – | 7 | half-lives greater than two hours | – | – | – | – | –
Cc1noc(-c2cnc(NC3CCCCC3)c(NC3CCCCC3)c2)n1 [TH-2-31, N^2,N^3-dicyclohexyl-5-(3-methyl-1,2,4-oxadiazol-5-yl)pyridine-2,3-diamine] | – | 0.5 to 1 | – | the most stable; also recorded: half-life greater than two hours | 5.6 | 2 | > 2 | > 2 | > 2
CCC(CC)Nc1cc(-c2nc(C)no2)cnc1NC1CCCCC1 [TH-4-55-2, N^2-cyclohexyl-5-(3-methyl-1,2,4-oxadiazol-5-yl)-N^3-(pentan-3-yl)pyridine-2,3-diamine] | – | > 1 | – | half-life greater than two hours | 5.8 | 2 | > 2 | > 2 | > 2
Cc1noc(-c2cnc(NC3CCCC3)c(NC3CCCC3)c2)n1 [TH-4-67, N^2,N^3-dicyclopentyl-5-(3-methyl-1,2,4-oxadiazol-5-yl)pyridine-2,3-diamine] | – | > 1 | – | half-life greater than two hours | 6.1 | 2 | > 2 | > 2 | > 2
